Test results from article PMC5218480 (PLoS ONE, 2017).

Tested on: MV-4-11 cells
Assay: Gene expression microarray analysis (Affymetrix PrimeView) and GSEA
Format: cell-based, human
Parameters: RFU PODN (11730768_x_at) / Fold change /veh PODN (11730768_x_at) / RFU LINC00158 (11744669_a_at) / Fold change /veh LINC00158 (11744669_a_at) / RFU DUSP10 (11751237_a_at) / Fold change /veh DUSP10 (11751237_a_at) / RFU ID3 (11757404_x_at) / Fold change /veh ID3 (11757404_x_at) / RFU PLEKHG5 (11737974_s_at) / Fold change /veh PLEKHG5 (11737974_s_at) / RFU LRRC4B (11730491_at) / Fold change /veh LRRC4B (11730491_at) / RFU GIMAP4 (11747438_a_at) / Fold change /veh GIMAP4 (11747438_a_at) / RFU KRT8 (11758183_x_at) / Fold change /veh KRT8 (11758183_x_at) / RFU CNN1 (11734310_a_at) / Fold change /veh CNN1 (11734310_a_at) / RFU VPS37D (11726825_at) / Fold change /veh VPS37D (11726825_at) / RFU C10orf10 (11716522_x_at) / Fold change /veh C10orf10 (11716522_x_at) / RFU KIR2DL2 /// KIR2DL4 /// KIR2DL5A /// KIR2DL5B /// KIR2DS1 /// KIR2DS2 /// KIR2DS3 /// KIR2DS4 /// KIR3DL3 /// KIR3DL3 /// KIR3DS1 (11738374_at) / Fold change /veh KIR2DL2 /// KIR2DL4 /// KIR2DL5A /// KIR2DL5B /// KIR2DS1 /// KIR2DS2 /// KIR2DS3 /// KIR2DS4 /// KIR3DL3 /// KIR3DL3 /// KIR3DS1 (11738374_at) / RFU C1QL1 (11718748_at) / Fold change /veh C1QL1 (11718748_at) / RFU TMPRSS4 (11747572_a_at) / Fold change /veh TMPRSS4 (11747572_a_at) / RFU HAMP (11756126_x_at) / Fold change /veh HAMP (11756126_x_at) / RFU RNFT2 (11725882_a_at) / Fold change /veh RNFT2 (11725882_a_at) / RFU NR4A2 (11747474_a_at) / Fold change /veh NR4A2 (11747474_a_at) / RFU ABCC12 (11746883_a_at) / Fold change /veh ABCC12 (11746883_a_at) / RFU TMEM136 (11760407_x_at) / Fold change /veh TMEM136 (11760407_x_at) / RFU CLDN22 /// WWC2 (11732394_at) / Fold change /veh CLDN22 /// WWC2 (11732394_at) / RFU HLA-DPB1 (11760878_x_at) / Fold change /veh HLA-DPB1 (11760878_x_at) / RFU SPINT1 (11716480_a_at) / Fold change /veh SPINT1 (11716480_a_at) / RFU GAP43 (11754022_s_at) / Fold change /veh GAP43 (11754022_s_at) / RFU A4GNT (11735810_at) / Fold change /veh A4GNT (11735810_at) / RFU PRB3 (11715151_x_at) / Fold change /veh PRB3 (11715151_x_at) / RFU TUBB4B (11761932_at) / Fold change /veh TUBB4B (11761932_at) / RFU CAPN14 (11732068_a_at) / Fold change /veh CAPN14 (11732068_a_at) / RFU TMCC2 (11721928_a_at) / Fold change /veh TMCC2 (11721928_a_at) / RFU IRGQ (11745062_a_at) / Fold change /veh IRGQ (11745062_a_at) / RFU FAM174B (11720279_a_at) / Fold change /veh FAM174B (11720279_a_at) / RFU TMPRSS4 (11748680_a_at) / Fold change /veh TMPRSS4 (11748680_a_at) / RFU FAM212B (11763350_a_at) / Fold change /veh FAM212B (11763350_a_at) / RFU PLEKHG5 (11743358_a_at) / Fold change /veh PLEKHG5 (11743358_a_at) / RFU ZSCAN30 (11745921_a_at) / Fold change /veh ZSCAN30 (11745921_a_at) / RFU CMKLR1 (11741424_a_at) / Fold change /veh CMKLR1 (11741424_a_at) / RFU LOC101060620 /// MAPK8IP1 (11723275_at) / Fold change /veh LOC101060620 /// MAPK8IP1 (11723275_at) / RFU SPTSSB (11747773_x_at) / Fold change /veh SPTSSB (11747773_x_at) / RFU PRSS12 (11739890_at) / Fold change /veh PRSS12 (11739890_at) / RFU BIN1 (11741810_x_at) / Fold change /veh BIN1 (11741810_x_at) / RFU WNT11 (11732464_a_at) / Fold change /veh WNT11 (11732464_a_at) / RFU C10orf10 (11716521_a_at) / Fold change /veh C10orf10 (11716521_a_at) / RFU C5orf56 (11738089_at) / Fold change /veh C5orf56 (11738089_at) / RFU CYB561 (11721691_x_at) / Fold change /veh CYB561 (11721691_x_at) / RFU ANKRD19P (11752326_a_at) / Fold change /veh ANKRD19P (11752326_a_at) / RFU OR2T12 /// OR2T33 /// OR2T8 (11738714_s_at) / Fold change /veh OR2T12 /// OR2T33 /// OR2T8 (11738714_s_at) / RFU VCAN (11748164_a_at) / Fold change /veh VCAN (11748164_a_at) / RFU JSRP1 (11732532_at) / Fold change /veh JSRP1 (11732532_at) / RFU KRTAP10-11 (11738290_x_at) / Fold change /veh KRTAP10-11 (11738290_x_at) / RFU MYO3A (11730013_a_at) / Fold change /veh MYO3A (11730013_a_at) / RFU EBF3 (11725865_a_at) / Fold change /veh EBF3 (11725865_a_at) / RFU CAMK2N1 (11719241_x_at) / Fold change /veh CAMK2N1 (11719241_x_at) / RFU C5orf56 (11738088_a_at) / Fold change /veh C5orf56 (11738088_a_at) / RFU OLFML3 (11715873_a_at) / Fold change /veh OLFML3 (11715873_a_at) / RFU LOC100653217 /// NTM (11731650_a_at) / Fold change /veh LOC100653217 /// NTM (11731650_a_at) / RFU MAPK11 (11762145_a_at) / Fold change /veh MAPK11 (11762145_a_at) / RFU FIZ1 (11724087_x_at) / Fold change /veh FIZ1 (11724087_x_at) / RFU OASL (11726364_x_at) / Fold change /veh OASL (11726364_x_at) / RFU SOX15 (11748057_x_at) / Fold change /veh SOX15 (11748057_x_at) / RFU CD79A (11719716_a_at) / Fold change /veh CD79A (11719716_a_at) / RFU HIST1H1D (11736915_at) / Fold change /veh HIST1H1D (11736915_at) / RFU CASKIN2 (11723855_a_at) / Fold change /veh CASKIN2 (11723855_a_at) / RFU LOC730098 (11760151_x_at) / Fold change /veh LOC730098 (11760151_x_at) / RFU OR4N2 (11742367_at) / Fold change /veh OR4N2 (11742367_at) / RFU PRRT2 (11749266_a_at) / Fold change /veh PRRT2 (11749266_a_at) / RFU SNX32 (11753110_a_at) / Fold change /veh SNX32 (11753110_a_at) / RFU CDHR5 (11726645_a_at) / Fold change /veh CDHR5 (11726645_a_at) / RFU RCAN1 (11760418_a_at) / Fold change /veh RCAN1 (11760418_a_at) / RFU FAM167A (11723789_a_at) / Fold change /veh FAM167A (11723789_a_at) / RFU FAM26E (11764081_at) / Fold change /veh FAM26E (11764081_at) / RFU ISYNA1 (11749810_s_at) / Fold change /veh ISYNA1 (11749810_s_at) / RFU ACY1 (11761880_at) / Fold change /veh ACY1 (11761880_at) / RFU 11764098_at / Fold change /veh 11764098_at / RFU SAMD14 (11745864_x_at) / Fold change /veh SAMD14 (11745864_x_at) / RFU NPB (11741838_a_at) / Fold change /veh NPB (11741838_a_at) / RFU TMPRSS6 (11731388_a_at) / Fold change /veh TMPRSS6 (11731388_a_at) / RFU KRTAP10-2 (11738614_at) / Fold change /veh KRTAP10-2 (11738614_at) / RFU ARHGAP8 /// PRR5-ARHGAP8 (11727945_x_at) / Fold change /veh ARHGAP8 /// PRR5-ARHGAP8 (11727945_x_at) / RFU KRTAP5-7 /// NADSYN1 (11734609_at) / Fold change /veh KRTAP5-7 /// NADSYN1 (11734609_at) / RFU RASL12 (11751679_a_at) / Fold change /veh RASL12 (11751679_a_at) / RFU CDKN2B (11736163_a_at) / Fold change /veh CDKN2B (11736163_a_at) / RFU PRF1 (11729649_at) / Fold change /veh PRF1 (11729649_at) / RFU, ZNF638 /// ZNF638-IT1 / Fold change vs veh, ZNF638 /// ZNF638-IT1 / RFU, PANK3 / Fold change vs veh, PANK3 / RFU, SH3YL1 / Fold change vs veh, SH3YL1 / RFU, ZEB2 / Fold change vs veh, ZEB2 / RFU, NRIP1 / Fold change vs veh, NRIP1 / RFU, PTTG1IP / Fold change vs veh, PTTG1IP / RFU, CAPN2 / Fold change vs veh, CAPN2 / RFU, MED14 / Fold change vs veh, MED14 / RFU, SNORA58 / Fold change vs veh, SNORA58 / RFU, C1orf63 / Fold change vs veh, C1orf63 / RFU, LRRFIP1 / Fold change vs veh, LRRFIP1 / RFU, NDUFAF7 / Fold change vs veh, NDUFAF7 / RFU, SLC12A2 / Fold change vs veh, SLC12A2 / RFU, IBTK / Fold change vs veh, IBTK / RFU, ESF1 / Fold change vs veh, ESF1 / Fold change vs veh, TMEM50B / RFU, TAOK1 / Fold change vs veh, TAOK1 / RFU, ACBD3 / Fold change vs veh, ACBD3 / RFU, TMA16 / Fold change vs veh, TMA16 / RFU, RWDD3 / Fold change vs veh, RWDD3 / RFU, BCAT1 / Fold change vs veh, BCAT1 / RFU, EDEM3 / Fold change vs veh, EDEM3 / RFU, TMEM33 / Fold change vs veh, TMEM33 / RFU, WDR75 / Fold change vs veh, WDR75 / RFU, AHCTF1 / Fold change vs veh, AHCTF1 / RFU, TFRC / Fold change vs veh, TFRC / RFU, ZDHHC17 / Fold change vs veh, ZDHHC17 / RFU, NOM1 / Fold change vs veh, NOM1 / RFU, ARL8B / Fold change vs veh, ARL8B / RFU, ZBTB11 / Fold change vs veh, ZBTB11 / RFU, TAMM41 / Fold change vs veh, TAMM41 / RFU, KIAA1704 /// LOC100996395 / Fold change vs veh, KIAA1704 /// LOC100996395 / RFU, ING1 / Fold change vs veh, ING1 / RFU, TRMT61B / Fold change vs veh, TRMT61B / RFU, FUBP3 / Fold change vs veh, FUBP3 / RFU, TP53 / Fold change vs veh, TP53 / RFU, TNKS2 / Fold change vs veh, TNKS2 / RFU, ZFP14 / Fold change vs veh, ZFP14 / RFU, ACTR2 / Fold change vs veh, ACTR2 / RFU, PPP3R1 / Fold change vs veh, PPP3R1 / RFU, PIK3R1 / Fold change vs veh, PIK3R1 / RFU, HNRNPA1 / Fold change vs veh, HNRNPA1 / RFU, RNF170 / Fold change vs veh, RNF170 / RFU, ZNF28 / Fold change vs veh, ZNF28 / RFU, RNGTT / Fold change vs veh, RNGTT / RFU, OGT / Fold change vs veh, OGT / RFU, BRD1 / Fold change vs veh, BRD1 / RFU, MARS / Fold change vs veh, MARS / RFU, ZNF655 / Fold change vs veh, ZNF655 / RFU, FAHD1 / Fold change vs veh, FAHD1 / RFU, BDP1 / Fold change vs veh, BDP1 / RFU, LRRCC1 / Fold change vs veh, LRRCC1 / RFU, ARID1A / Fold change vs veh, ARID1A / RFU, ZNF146 / Fold change vs veh, ZNF146 / RFU, ZNF330 / Fold change vs veh, ZNF330 / RFU, GPN3 / Fold change vs veh, GPN3 / RFU, C9orf123 / Fold change vs veh, C9orf123 / RFU, N4BP2L2 / Fold change vs veh, N4BP2L2 / RFU, ARFIP1 / Fold change vs veh, ARFIP1 / RFU, FAM179B / Fold change vs veh, FAM179B / RFU, BCL10 / Fold change vs veh, BCL10 / RFU, UHRF1BP1L / Fold change vs veh, UHRF1BP1L / RFU, BET1 / Fold change vs veh, BET1 / RFU, CNOT2 / Fold change vs veh, CNOT2 / RFU, ZNF268 / Fold change vs veh, ZNF268 / Fold change vs veh, ZNF507 / RFU, DGCR2 / Fold change vs veh, DGCR2 / RFU, WDSUB1 / Fold change vs veh, WDSUB1 / Fold change vs veh, HSP90B1 /// MIR3652 / RFU, ADSS / Fold change vs veh, ADSS / RFU, GK / Fold change vs veh, GK / RFU, ZNF148 / Fold change vs veh, ZNF148 / RFU, TAF9 / Fold change vs veh, TAF9 / RFU, SLC1A5 / Fold change vs veh, SLC1A5 / RFU, SLMO2 / Fold change vs veh, SLMO2 / RFU, ABCC4 / Fold change vs veh, ABCC4 / RFU, LOC101060439 /// RAP1B / Fold change vs veh, LOC101060439 /// RAP1B / RFU, RFX7 / Fold change vs veh, RFX7 / RFU, GTPBP10 / Fold change vs veh, GTPBP10 / RFU, CNEP1R1 / Fold change vs veh, CNEP1R1 / RFU, BIVM-ERCC5 /// ERCC5 / Fold change vs veh, BIVM-ERCC5 /// ERCC5 / RFU, ILF3 / Fold change vs veh, ILF3 / RFU 11762660_at / Fold change /veh 11762660_at / RFU VCAN (11757783_s_at) / Fold change /veh VCAN (11757783_s_at) / RFU DDX43 (11728927_at) / Fold change /veh DDX43 (11728927_at) / RFU KRT8 (11758188_x_at) / Fold change /veh KRT8 (11758188_x_at) / RFU NKD1 (11759106_at) / Fold change /veh NKD1 (11759106_at) / RFU SRD5A1 (11742802_a_at) / Fold change /veh SRD5A1 (11742802_a_at) / RFU TPSAB1 /// TPSB2 (11721975_s_at) / Fold change /veh TPSAB1 /// TPSB2 (11721975_s_at) / RFU GSTM3 (11746129_a_at) / Fold change /veh GSTM3 (11746129_a_at) / RFU IL23R (11737362_x_at) / Fold change /veh IL23R (11737362_x_at) / RFU TMEM51 (11727254_a_at) / Fold change /veh TMEM51 (11727254_a_at) / RFU PIWIL2 (11732686_x_at) / Fold change /veh PIWIL2 (11732686_x_at) / RFU ORM1 (11744905_x_at) / Fold change /veh ORM1 (11744905_x_at) / RFU CCDC152 (11743942_at) / Fold change /veh CCDC152 (11743942_at) / RFU ECM1 (11717891_a_at) / Fold change /veh ECM1 (11717891_a_at) / RFU IL23R (11748794_a_at) / Fold change /veh IL23R (11748794_a_at) / RFU TNFAIP8L3 (11732012_x_at) / Fold change /veh TNFAIP8L3 (11732012_x_at) / RFU MBOAT4 (11741988_at) / Fold change /veh MBOAT4 (11741988_at) / RFU 11764193_at / Fold change /veh 11764193_at / RFU TMEM53 (11763286_at) / Fold change /veh TMEM53 (11763286_at) / RFU MAGEB2 (11727129_at) / Fold change /veh MAGEB2 (11727129_at) / RFU TMEM200A (11744735_a_at) / Fold change /veh TMEM200A (11744735_a_at) / RFU CCDC152 (11751479_a_at) / Fold change /veh CCDC152 (11751479_a_at) / RFU FAM211A (11726209_a_at) / Fold change /veh FAM211A (11726209_a_at) / RFU RGS16 (11746705_a_at) / Fold change /veh RGS16 (11746705_a_at) / RFU VCAN (11755009_s_at) / Fold change /veh VCAN (11755009_s_at) / RFU RHOB (11743442_s_at) / Fold change /veh RHOB (11743442_s_at) / RFU RGS16 (11720943_a_at) / Fold change /veh RGS16 (11720943_a_at) / RFU RGS16 (11720944_at) / Fold change /veh RGS16 (11720944_at) / RFU, VPS4B / Fold change vs veh, VPS4B / RFU, CREB1 / Fold change vs veh, CREB1 / RFU, DNAJC13 / Fold change vs veh, DNAJC13 / RFU, GNAQ / Fold change vs veh, GNAQ / RFU, CDK5R1 / Fold change vs veh, CDK5R1 / RFU, ZRANB3 / Fold change vs veh, ZRANB3 / RFU, CUL4A / Fold change vs veh, CUL4A / RFU, CCNY / Fold change vs veh, CCNY / RFU, UFL1 / Fold change vs veh, UFL1 / RFU, COG3 / Fold change vs veh, COG3 / RFU, DIAPH2 / Fold change vs veh, DIAPH2 / RFU, SKA2 / Fold change vs veh, SKA2 / RFU, AFF3 / Fold change vs veh, AFF3 / RFU, LMF1 / Fold change vs veh, LMF1 / RFU, IPO11 / Fold change vs veh, IPO11 / RFU, DFFB / Fold change vs veh, DFFB / RFU, FOXP1 / Fold change vs veh, FOXP1 / RFU, CARD8 / Fold change vs veh, CARD8 / RFU, STRN3 / Fold change vs veh, STRN3 / RFU, ADK / Fold change vs veh, ADK / RFU, RASSF2 / Fold change vs veh, RASSF2 / RFU, WIPF1 / Fold change vs veh, WIPF1 / RFU, LARP1B / Fold change vs veh, LARP1B / RFU, RASA1 / Fold change vs veh, RASA1 / RFU, RB1 / Fold change vs veh, RB1 / RFU, PPFIA1 / Fold change vs veh, PPFIA1 / RFU, MAT2A / Fold change vs veh, MAT2A / RFU, CCT5 / Fold change vs veh, CCT5 / RFU, WDR92 / Fold change vs veh, WDR92 / RFU, CUX1 / Fold change vs veh, CUX1 / RFU, TTC7A / Fold change vs veh, TTC7A / RFU, TMEM135 / Fold change vs veh, TMEM135 / RFU, DEPTOR / Fold change vs veh, DEPTOR / RFU, CPM / Fold change vs veh, CPM / RFU, DNAJB6 / Fold change vs veh, DNAJB6 / RFU, CACNA2D3 / Fold change vs veh, CACNA2D3 / RFU, DTX4 / Fold change vs veh, DTX4 / RFU, TFCP2 / Fold change vs veh, TFCP2 / RFU, GMCL1 /// GMCL1P1 / Fold change vs veh, GMCL1 /// GMCL1P1 / RFU, AEBP2 / Fold change vs veh, AEBP2 / RFU, SNHG1 /// SNORD22 /// SNORD25 /// SNORD26 /// SNORD27 /// SNORD28 /// SNORD29 /// SNORD31 / Fold change vs veh, SNHG1 /// SNORD22 /// SNORD25 /// SNORD26 /// SNORD27 /// SNORD28 /// SNORD29 /// SNORD31 / Fold change (Aza/veh), C12orf56 (ProbeSet 11735607_a_at) / Fold change (ACY-1035/veh), C12orf56 (ProbeSet 11735607_a_at) / Fold change (Aza/veh), FGFR1OP (ProbeSet 11751329_s_at) / Fold change (ACY-1035/veh), FGFR1OP (ProbeSet 11751329_s_at) / Fold change (Aza/veh), VPS36 (ProbeSet 11739960_a_at) / Fold change (ACY-1035/veh), VPS36 (ProbeSet 11739960_a_at) / RFU SYPL1 (11715823_x_at) / Fold change /veh SYPL1 (11715823_x_at) / RFU IGFBP7 (11715501_s_at) / Fold change /veh IGFBP7 (11715501_s_at) / RFU REEP3 (11722064_at) / Fold change /veh REEP3 (11722064_at) / RFU IGLL1 (11728026_x_at) / Fold change /veh IGLL1 (11728026_x_at): dose or concentration left out as unconfirmed
Settings: MV-4-11 cells, 48 hours

For `Nc1ncn([C@@H]2O[C@H](CO)[C@@H](O)[C@H]2O)c(=O)n1` [azacitidine], the “RFU PRB3 (11715151_x_at)” value was 8.00 RFU.
